Laboratory results from patent publication US20180183541A9, “A New Treatment For Improving The Use Of Dietary Sugar For Energy Purposes” (Nutravis S.r.l., priority 2014, published 2018).
Like-named read-outs stand apart in the source and are kept apart here.

Assays:
[1] = In vivo hydrolysis of orally given ABA-GE to ABA, plasma HPLC-MS; set-up: species or system rat; settings: 30 and 60 min after gavage of synthetic ABA-GE, Wistar rats n=3
Source text: Wistar rats (n=3) were given an amount of synthetic ABA-GE by gavage in order to evaluate its in vivo hydrolysis, resulting in the release of ABA. […] Therefore, the ABA-GE present in the aqueous apricot extract contributes to the effective dose of ABA taken with the extract, as it can be hydrolyzed to yield free ABA.
FIG. 4: HPLC-MS analysis of representative plasma samples from a rat subjected to gavage with a solution containing synthetic ABA-GE. […] The amount of ABA released by hydrolysis from its conjugated form ABA-GE at different times (30 and 60 min after gavage) was measured by HPLC-MS. The coefficient of absorbance of ABA-GE at 254 nm, used for chromatographic analysis, is approximately 10 times lower than that of free ABA. This explains the different area of their respective chromatographic peaks.

[2] = Body weight gain induced by chronic high-dose glucose in mice; type: in vivo, mouse; settings: female CD1 mice, ABA 1 μg/Kg BW with glucose 1 g/Kg BW daily in drinking water, 12 weeks
Procedure: Five, week-old female CD1 mice (outbread) (9 per group) were administered glucose in the drinking water, without (controls) or with the addition of synthetic ABA. To achieve the required daily dose of glucose (1 g/kg BW) and of ABA (1 μg/Kg BW) the daily volume of water drank by the animals used for the test was preliminary established. Based on this volume (5 ml/day), and taking into account an average weight of the mice of 30 grams, the water administered to the animals, contained 0,006 g/ml of glucose and 0,006 μg/ml ABA. The weight control was performed after 12 weeks of treatment on the two groups of animals fasted for 17 hours before measurement of the weight. The reason for using female CD1 for this test was that they show a natural predisposition to accumulation of adipose tissue that is not found, instead, in males of the same strain.
FIG. 8. Daily oral intake of synthetic ABA at the dose of 1 μg/Kg reduces the body weight increase induced by the chronic intake of high-dose glucose (1g/Kg) in mice. Five-week old female CD1 mice (outbred) (9/group) received daily, in the drinking water, a glucose solution without (controls) or with synthetic ABA (see Materials and Methods for details). Body weight was determined after 12 weeks of treatment, and both groups of animals were fasted for 17 hours before measurement. […]

[3] = tested on: Male CD1 mice; assay: Muscle performance in mice (spontaneous wheel running); type: in vivo, mouse; settings: ABA 1 μg/Kg BW with glucose 1 g/Kg BW for 12 weeks
Procedure: Male CD1 mice (outbread) (8 per group) were administered glucose with the drinking water without (controls) or with the addition of synthetic ABA. The concentrations of glucose and of ABA in water were calculated considering the average daily volume drank by each mice so as to reach a dose of 1 g/Kg BW and 1 μg/Kg BW of ABA. After 12 weeks of treatment the mice (average weight 45.1 and 43.3 grams for the animals treated with glucose and glucose+ABA, respectively) were kept 12 hours in two separate cages, each equipped with a wheel connected to a digital odometer measuring the total distance traveled on the wheel and the time of rotation of the wheel. The tests were performed during the night time on animals with freely available food and water containing glucose alone (controls) or glucose+ABA. The reason for using male CD1 mice for this experiment is their natural predisposition to develop more muscle mass compared to females from the same strain.
Table 6. […] Male CD1mice (outbred) (8/group) with a mean weight of 45.1 and 43.3 g for animals treated with glucose and glucose+ABA, respectively, were kept for the same time (12 hours) in two cages, each containing a wheel connected to a digital cyclometer, capable of measuring the total distance travelled and the duration of rotation of the wheel. The tests (n=2 for each group of animals) were performed during the night hours, with ad libitum food and water, containing glucose (controls) or glucose+ABA.

[4] = Stability tests of ABA at high temperatures (autoclave sterilization); type: physicochemical; settings: autoclave sterilization at 121° C. for 8 min; HPLC-MS
Procedure: Experiments were performed to evaluate the heat stability of synthetic ABA or of ABA naturally present in aqueous and supercritical extracts. Samples containing known nanomolar concentrations of ABA (either synthetic or present in the extracts) were divided into two aliquots of equal volume and subjected or not (control) to autoclave sterilization at 121° C. for 8 min (the condition generally applied to the sterilization of food). After sterilization, 100 μl of each aliquot and its un-sterilized control were injected into an analytical Hypercarb column (Thermo Scientific, Pittsburgh, Pa.) (4.6×100 mm; particle size 5 μm). Solvent A was water containing 0.1% formic acid (FOA), solvent B was acetonitrile containing 0.1% FOA and solvent flux was 0.8 ml/min. The linear elution gradient was from 100% A to 100% B in 30 min. Fractions were taken every 30 sec, lyophilized, re-dissolved in 11 μl of a solution composed of 90% solvent A and 10% solvent B of the HPLC-coupled mass spectrometry analysis and [^2H6]-ABA was added as an internal standard. Samples were analyzed as previously described under “Determination of the ABA content in several foods”. The amount of ABA present in the aliquots subjected to sterilization was unchanged compared with that measured in the control samples.

[5] = tested on: Wistar male rats
Procedure: For the determination of blood glucose in rats, blood samples were taken from the tail vein of anesthetized animals and blood glucose was measured with a glucometer (Bayer). The quantification of insulin on the same animals, was carried out by sampling blood from the orbital sinus, immediately adding heparin and subjecting each sample to centrifugation at 22000×g for 30 sec: aliquots of plasma were stored at −20° C. The plasma insulin concentration was determined with an ELISA kit (Bertin-Pharma, Montigny, France).
Wistar male rats (obtained from Charles River, Milan, Italy), age between 9 and 13 weeks, were divided into two groups (12 animals per group) and fasted for 17 hours. After mild sedation with diazepam, 1 g/kg BW of glucose was administered by gavage in about 300-400 μl of aqueous solution, containing or not 1 μg/Kg BW of synthetic ABA, or the same dose of ABA or ABA-GE endogenously present in a supercritical or water plant extract. Immediately after gavage, rats were anesthetized with xylazine and ketamine. Blood glucose was measured with a glucometer on blood taken from the tail vein immediately before gavage (time zero) and 15, 30 and 60 minutes after gavage. Each measurement was performed in duplicate.
Two groups of male Wistar rats (12 animals per group), fasted for 17 hours, were subjected to an OGTT (1 g/Kg BW glucose) , without or with 1 μg/Kg BW of synthetic ABA. Glycemia was measured with a glucometer in duplicate on blood taken from the tail vein at baseline (immediately before gavage) and at the indicated times after gavage. Insulinemia was measured by ELISA, in duplicate on plasma samples. Results are mean ±SD.

[6] = tested on: db/db mice; settings: cited from earlier work
[7] = tested on: myoblasts; settings: myoblasts incubated in vitro with 100 nM ABA (Bruzzone et al. 2012); cited from earlier work
[8] = synthetic ABA 1 μg/Kg BW during OGTT
[9] = synthetic ABA 1 μg/Kg BW with glucose 1 g/Kg BW by gavage

chromatographic peak of free ABA in plasma compared to 0 min [1]	SMILES	weight increase compared to the controls [2]	maximal speed recorded compared with that of the controls [3] [times]	Time of use ([3]; wheel available 12 hours) [min]	Total distance covered (m) ([3]; wheel available 12 hours)	amount of ABA after sterilization compared with control samples [4]	glycemic profile compared to the controls ([5]; ABA 95 μg/Kg BW during OGTT)	glycemic profile compared to the controls ([5]; ABA 100 mg/Kg BW during OGTT)	insulin AUC compared to control rats ([5]; ABA 100 mg/Kg BW during OGTT)	insulin response to the glucose load ([5]; ABA 1 and up to 95 μg/Kg BW)	plasma concentration corresponding to the dose ([5]; male, Wistar, rat, in vivo)	mean level of plasmatic insulin compared to controls [5, 8]	reduction of insulin AUC compared to controls [5, 8]	AUC of glycemia compared to the controls [5, 9]	glycemic profile compared to the controls [5, 9]	minimum effective dose improving glucose tolerance ([6]; dietary intake, mice diabetic by leptin receptor mutation (Guri et al., 2007)) [mg/kg]	weight increase compared with the controls ([6]; mice chronically treated with ABA at 100 mg/Kg BW (literature))	glucose transport [7]
marked increase	CC1=CC(=O)CC(C)(C)[C@@]1(O)/C=C/C(C)=C\C(=O)O[C@@H]1O[C@H](CO)[C@@H](O)[C@H](O)[C@H]1O [ABA-GE, ABA-glucosyl ester]																	
	CC1=CC(=O)CC(C)(C)C1(O)/C=C/C(C)=C\C(=O)O (racemic) [ABA, 2-cis, 4-trans-abscisic acid]	significantly lower weight increase	3.2	105	2693	unchanged	reduced compared to the controls	reduced compared to the controls	comparable to that of control rats	significant decrease	less than 10 nM	significantly lower	about 15 times	significantly lower AUC of glycemia	significantly reduced glycemic profile	100	not dissimilar compared with the controls	increased glucose transport
